In the assay the test system is GBM6 intra-cerebral tumors. In words: Survival of mice with orthotopic GBM6 tumors after intratumoral virus infusion. The format is in vivo, athymic mice. The settings on record: virus 1×10^8 pfu intratumoral day 7; SAHA 25 mg/kg QD PO for 5 days. How it is done:
FIG. 24. SAHA enhances MDA-7/IL-24 toxicity in vivo. GBM6 cells (0.5×10^6) were implanted into the brains of athymic mice. Seven days later tumors were infused with 1×10^8 pfu of either Ad.5/3-cmv or Ad.5/3-mda-7. Twenty-four h after virus infusion animals were treated with vehicle diluent (cremophore, PO) or vorinostat (SAHA, 25 mg/kg QD, PO) for 5 days. Animal survival was monitored on a daily basis (n=2, 8 animals total).
FIG. 25A-E. Ad.5/3-PEG-E1A-mda-7 (Ad.5/3-CTV; Ad.5/3-CTV-M7) prolongs animal survival in a dose-dependent fashion and does so to a greater extent than Ad.5/3- mda-7. Panel A. GBM6-luciferase cells (0.5 ×10^6) were implanted into the brains of athymic mice. Seven days later tumors were infused with 1×10^8 pfu of either: Ad.5/3-cmv: Ad.5/3-mda-7; Ad.5/3-PEG-E1A; or Ad.5/3-PEG-E1A-mda-7 (Ad.5/3-CTV; Ad.5/3-CTV-M7). On the days indicated in the graph animals were injected with luciferin (150 mg/kg) and were imaged 15 min later following placement into an IVIS Xenogen imager. […] Animal survival was monitored on a daily basis (n=2, 6 animals total) ((a) p<0.04 greater survival than Ad.5/3-cmv; (b) p<0.0008 greater survival than Ad.5/3-cmv; (c) p<0.04 greater survival than Ad.5/3-mda-7; (d) p<0.004 greater survival than Ad.5/3-mda-7; (e) p<0.0008 greater survival than Ad.5/3-PEG-E1A-mda-7 (Ad.5/3-CTV; Ad.5/3-CTV-M7) at a dose of 3×10^8 pfu). […]

Results on one compound are retold here after patent US10314870B2, “Tropism modified cancer terminator virus (Ad.5/3 CTV;AD.5/3-CTV-M7)” (priority 2012, dated 2019).

On to `O=C(CCCCCCC(=O)Nc1ccccc1)NO` [SAHA], for which the animal survival result is recorded as “did not significantly enhance animal survival”.
